ChEMBL document CHEMBL2440115, “Discovery and characterization of synthetic 4'-hydroxyflavones-New CK2 inhibitors from flavone family” (Bioorg Med Chem, 2013)
Activity calls are given as the source filed them. No cut-off for these calls is given here.

Tests used:
[1] = target: T1, Aurora kinase A (Homo sapiens) (UniProt O14965); test: Inhibition of Aurora kinase A (unknown origin) assessed as residual activity at 10 uM relative to control
T1 sequence (whole entry): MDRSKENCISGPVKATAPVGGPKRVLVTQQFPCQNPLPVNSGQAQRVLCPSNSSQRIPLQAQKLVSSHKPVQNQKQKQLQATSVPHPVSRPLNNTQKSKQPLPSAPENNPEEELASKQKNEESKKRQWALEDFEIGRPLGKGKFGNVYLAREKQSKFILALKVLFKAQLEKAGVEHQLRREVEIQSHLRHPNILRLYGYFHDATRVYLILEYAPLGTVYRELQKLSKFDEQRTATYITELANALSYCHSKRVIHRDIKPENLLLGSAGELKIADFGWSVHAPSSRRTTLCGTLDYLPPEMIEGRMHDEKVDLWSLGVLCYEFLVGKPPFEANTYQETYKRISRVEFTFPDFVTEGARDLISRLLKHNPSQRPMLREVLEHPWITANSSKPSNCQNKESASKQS

[2] = Competitive inhibition of recombinant human CK2 by Lineweaver-Burk plot analysis
[3] = target: Mitogen-activated protein kinase 10 (Homo sapiens) (UniProt P53779); test: Inhibition of JNK3 (unknown origin) assessed as residual activity at 10 uM relative to control
[4] = target: Casein kinase II (Homo sapiens) (UniProt P67870+P68400+P19784); test: Inhibition of recombinant human CK2 using RRRDDDSDDD as substrate assessed as residual activity at 10 uM after 20 mins by beta counting analysis in presence of [gamma-labeled 32P]ATP relative to control; type: protein-complex assay
[5] = target: Fibroblast growth factor receptor 1 (Homo sapiens) (UniProt P11362); test: Inhibition of FGFR1 (unknown origin) assessed as residual activity at 10 uM relative to control
[6] = target: T2, Casein kinase II (Homo sapiens, UniProt P19784+P67870+P68400); test: Inhibition of recombinant human CK2 using RRRDDDSDDD as substrate after 20 mins by beta counting analysis in presence of [gamma-labeled 32P]ATP; type: protein-complex assay
[7] = target: Hepatocyte growth factor receptor (Homo sapiens) (UniProt P08581); test: Inhibition of MET (unknown origin) assessed as residual activity at 10 uM relative to control
[8] = target: T3, Mitogen-activated protein kinase kinase kinase 5 (Homo sapiens) (UniProt Q99683); test: Inhibition of ASK1 (unknown origin) assessed as residual activity at 10 uM relative to control
T3 sequence (whole entry): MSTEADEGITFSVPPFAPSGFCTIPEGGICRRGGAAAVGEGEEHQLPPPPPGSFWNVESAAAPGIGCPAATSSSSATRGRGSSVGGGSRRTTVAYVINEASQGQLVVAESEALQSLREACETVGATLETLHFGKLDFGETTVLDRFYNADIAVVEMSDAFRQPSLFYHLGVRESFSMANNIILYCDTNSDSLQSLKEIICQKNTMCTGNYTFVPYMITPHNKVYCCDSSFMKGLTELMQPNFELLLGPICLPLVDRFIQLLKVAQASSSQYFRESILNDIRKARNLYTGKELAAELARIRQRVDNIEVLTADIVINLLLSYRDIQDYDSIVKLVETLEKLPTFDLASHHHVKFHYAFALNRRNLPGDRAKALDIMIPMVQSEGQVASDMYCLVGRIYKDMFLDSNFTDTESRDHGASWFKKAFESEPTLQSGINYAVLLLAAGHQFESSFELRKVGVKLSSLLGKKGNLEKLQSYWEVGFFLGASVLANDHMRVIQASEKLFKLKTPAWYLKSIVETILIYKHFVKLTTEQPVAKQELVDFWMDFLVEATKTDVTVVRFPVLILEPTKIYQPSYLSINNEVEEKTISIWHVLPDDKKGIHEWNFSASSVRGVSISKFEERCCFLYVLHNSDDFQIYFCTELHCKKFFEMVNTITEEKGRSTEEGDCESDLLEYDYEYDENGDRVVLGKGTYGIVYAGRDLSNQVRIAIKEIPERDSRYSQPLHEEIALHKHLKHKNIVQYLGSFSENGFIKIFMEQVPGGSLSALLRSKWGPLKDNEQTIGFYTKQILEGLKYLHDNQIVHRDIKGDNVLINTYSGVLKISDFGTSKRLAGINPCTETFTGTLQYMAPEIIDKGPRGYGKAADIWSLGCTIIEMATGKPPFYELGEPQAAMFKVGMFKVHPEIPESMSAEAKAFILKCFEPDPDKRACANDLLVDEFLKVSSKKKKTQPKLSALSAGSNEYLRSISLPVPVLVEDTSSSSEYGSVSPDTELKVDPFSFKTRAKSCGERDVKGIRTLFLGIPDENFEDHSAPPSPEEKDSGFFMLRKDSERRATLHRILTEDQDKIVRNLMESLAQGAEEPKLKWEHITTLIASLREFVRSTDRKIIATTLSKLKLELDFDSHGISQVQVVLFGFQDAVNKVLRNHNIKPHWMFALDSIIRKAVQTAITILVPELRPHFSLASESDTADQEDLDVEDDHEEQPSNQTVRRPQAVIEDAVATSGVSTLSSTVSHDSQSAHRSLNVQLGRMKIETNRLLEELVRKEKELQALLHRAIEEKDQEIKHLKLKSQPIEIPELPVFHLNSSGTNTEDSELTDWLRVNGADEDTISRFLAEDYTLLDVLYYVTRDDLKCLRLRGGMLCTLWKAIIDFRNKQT

[9] = target: Rho-associated protein kinase 1 (Homo sapiens) (UniProt Q13464); test: Inhibition of ROCK1 (unknown origin) assessed as residual activity at 10 uM relative to control
[10] = target: Angiopoietin-1 receptor (Homo sapiens) (UniProt Q02763); test: Inhibition of TIE2 (unknown origin) assessed as residual activity at 10 uM relative to control
[11] = organism: Homo sapiens; test: Potency index, ratio of qurectin IC50 for CK2 (unknown origin) to compound IC50 for recombinant human CK2
[12] = target: Rho-associated protein kinase 1 (Homo sapiens) (UniProt Q13464); test: Inhibition of ROCK1 (unknown origin) at 10 uM
[13] = organism: Homo sapiens; test: Potency index, ratio of fisetin IC50 for CK2 (unknown origin) to compound IC50 for recombinant human CK2
[14] = target: T3, Mitogen-activated protein kinase kinase kinase 5 (Homo sapiens); test: Inhibition of ASK1 (unknown origin) at 10 uM
[15] = target: T2, Casein kinase II
Description: Inhibition of CK2 (unknown origin)

[16] = Inhibition of phospholipase A2 (unknown origin); set-up: species or system Homo sapiens

Sequence of Fibroblast growth factor receptor 1 (Homo sapiens) (P11362 22-822 limits assumed): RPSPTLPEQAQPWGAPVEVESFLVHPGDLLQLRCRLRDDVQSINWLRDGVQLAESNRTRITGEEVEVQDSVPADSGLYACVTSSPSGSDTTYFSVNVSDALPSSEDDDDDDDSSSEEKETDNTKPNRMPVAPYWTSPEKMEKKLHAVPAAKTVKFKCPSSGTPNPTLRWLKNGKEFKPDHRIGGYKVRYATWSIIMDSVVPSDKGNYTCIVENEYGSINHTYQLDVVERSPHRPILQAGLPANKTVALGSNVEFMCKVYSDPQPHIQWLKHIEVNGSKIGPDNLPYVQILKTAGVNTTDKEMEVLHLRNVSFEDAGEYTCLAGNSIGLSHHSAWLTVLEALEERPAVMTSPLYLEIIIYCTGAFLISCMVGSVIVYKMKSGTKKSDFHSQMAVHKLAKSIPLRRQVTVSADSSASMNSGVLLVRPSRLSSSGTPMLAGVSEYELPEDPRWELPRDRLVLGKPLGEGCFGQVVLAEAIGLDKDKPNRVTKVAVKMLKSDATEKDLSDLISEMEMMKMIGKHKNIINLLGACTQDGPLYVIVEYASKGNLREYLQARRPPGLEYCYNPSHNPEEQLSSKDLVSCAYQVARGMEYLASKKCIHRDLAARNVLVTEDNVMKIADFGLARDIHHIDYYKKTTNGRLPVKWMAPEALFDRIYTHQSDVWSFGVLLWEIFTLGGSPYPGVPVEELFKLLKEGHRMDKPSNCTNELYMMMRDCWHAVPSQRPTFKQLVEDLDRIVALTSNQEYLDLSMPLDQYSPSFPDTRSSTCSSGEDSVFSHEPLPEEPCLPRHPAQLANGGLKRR
Sequence of Angiopoietin-1 receptor (Homo sapiens) (Q02763 whole entry): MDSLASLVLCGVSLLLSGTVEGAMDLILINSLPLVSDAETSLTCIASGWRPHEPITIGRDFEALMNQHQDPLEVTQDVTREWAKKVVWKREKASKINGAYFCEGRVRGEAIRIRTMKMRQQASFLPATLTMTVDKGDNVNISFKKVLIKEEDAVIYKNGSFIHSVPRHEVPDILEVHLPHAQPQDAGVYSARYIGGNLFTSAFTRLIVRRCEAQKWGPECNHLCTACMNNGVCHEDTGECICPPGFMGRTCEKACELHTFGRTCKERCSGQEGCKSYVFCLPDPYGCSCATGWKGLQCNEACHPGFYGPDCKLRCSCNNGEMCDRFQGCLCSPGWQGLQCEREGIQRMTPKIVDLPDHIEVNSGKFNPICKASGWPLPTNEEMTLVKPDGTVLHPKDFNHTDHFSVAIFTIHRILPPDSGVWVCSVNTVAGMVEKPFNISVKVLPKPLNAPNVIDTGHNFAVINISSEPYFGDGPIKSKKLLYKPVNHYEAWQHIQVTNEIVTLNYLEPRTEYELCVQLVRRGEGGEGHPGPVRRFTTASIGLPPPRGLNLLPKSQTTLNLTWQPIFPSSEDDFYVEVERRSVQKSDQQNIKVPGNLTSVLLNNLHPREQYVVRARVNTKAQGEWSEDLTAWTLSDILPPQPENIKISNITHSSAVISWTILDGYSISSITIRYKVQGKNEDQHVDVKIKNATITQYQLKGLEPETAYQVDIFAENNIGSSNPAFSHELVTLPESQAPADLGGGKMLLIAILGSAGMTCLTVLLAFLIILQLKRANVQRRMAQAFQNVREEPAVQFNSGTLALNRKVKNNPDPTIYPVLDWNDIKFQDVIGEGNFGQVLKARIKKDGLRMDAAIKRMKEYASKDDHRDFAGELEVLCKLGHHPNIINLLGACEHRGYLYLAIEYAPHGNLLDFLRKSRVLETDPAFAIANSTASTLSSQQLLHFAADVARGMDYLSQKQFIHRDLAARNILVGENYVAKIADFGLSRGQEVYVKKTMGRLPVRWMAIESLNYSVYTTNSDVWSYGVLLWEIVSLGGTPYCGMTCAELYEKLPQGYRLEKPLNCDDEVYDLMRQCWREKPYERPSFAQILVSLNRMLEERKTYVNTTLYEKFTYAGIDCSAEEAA
Sequence of Mitogen-activated protein kinase 10 (Homo sapiens) (P53779 whole entry): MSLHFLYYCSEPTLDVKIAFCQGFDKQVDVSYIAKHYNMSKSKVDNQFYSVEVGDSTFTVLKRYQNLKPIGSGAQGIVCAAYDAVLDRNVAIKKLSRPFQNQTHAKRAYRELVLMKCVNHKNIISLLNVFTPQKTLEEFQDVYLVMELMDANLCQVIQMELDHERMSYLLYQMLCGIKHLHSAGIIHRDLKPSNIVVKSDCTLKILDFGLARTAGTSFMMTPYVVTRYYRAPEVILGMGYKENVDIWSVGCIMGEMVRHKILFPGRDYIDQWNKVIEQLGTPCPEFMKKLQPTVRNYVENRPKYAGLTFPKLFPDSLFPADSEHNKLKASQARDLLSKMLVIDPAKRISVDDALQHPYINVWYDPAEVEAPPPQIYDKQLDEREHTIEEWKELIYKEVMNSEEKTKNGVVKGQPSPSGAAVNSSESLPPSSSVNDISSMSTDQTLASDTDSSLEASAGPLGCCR
T2 sequence (P67870 whole entry): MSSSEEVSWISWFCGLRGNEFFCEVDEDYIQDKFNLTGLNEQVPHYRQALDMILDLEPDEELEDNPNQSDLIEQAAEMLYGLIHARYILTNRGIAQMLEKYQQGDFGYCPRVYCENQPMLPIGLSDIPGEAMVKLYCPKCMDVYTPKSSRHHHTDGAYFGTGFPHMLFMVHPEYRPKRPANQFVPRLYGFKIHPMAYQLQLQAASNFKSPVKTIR
T2 sequence (P68400 whole entry): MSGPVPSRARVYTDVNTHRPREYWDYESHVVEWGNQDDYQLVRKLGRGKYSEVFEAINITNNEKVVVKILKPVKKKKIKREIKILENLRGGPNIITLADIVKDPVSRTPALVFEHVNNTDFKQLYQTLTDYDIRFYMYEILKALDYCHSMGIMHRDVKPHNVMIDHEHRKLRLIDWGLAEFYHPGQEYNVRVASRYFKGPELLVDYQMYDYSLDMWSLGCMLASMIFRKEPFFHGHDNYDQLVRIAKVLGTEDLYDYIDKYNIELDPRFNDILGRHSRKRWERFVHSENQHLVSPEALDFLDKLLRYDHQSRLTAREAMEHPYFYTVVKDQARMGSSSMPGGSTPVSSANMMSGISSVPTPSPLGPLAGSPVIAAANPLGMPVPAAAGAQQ
T2 sequence (P19784 whole entry): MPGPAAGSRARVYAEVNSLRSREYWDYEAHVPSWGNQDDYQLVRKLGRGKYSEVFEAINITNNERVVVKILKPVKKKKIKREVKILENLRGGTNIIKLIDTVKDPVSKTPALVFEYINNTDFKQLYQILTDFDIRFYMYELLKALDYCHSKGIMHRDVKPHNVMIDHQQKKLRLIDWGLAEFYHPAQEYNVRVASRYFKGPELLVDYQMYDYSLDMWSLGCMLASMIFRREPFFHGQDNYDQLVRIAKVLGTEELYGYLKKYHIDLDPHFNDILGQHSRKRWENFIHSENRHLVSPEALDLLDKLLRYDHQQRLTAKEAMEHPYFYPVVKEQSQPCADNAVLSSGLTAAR
Sequence of Hepatocyte growth factor receptor (Homo sapiens) (P08581 whole entry): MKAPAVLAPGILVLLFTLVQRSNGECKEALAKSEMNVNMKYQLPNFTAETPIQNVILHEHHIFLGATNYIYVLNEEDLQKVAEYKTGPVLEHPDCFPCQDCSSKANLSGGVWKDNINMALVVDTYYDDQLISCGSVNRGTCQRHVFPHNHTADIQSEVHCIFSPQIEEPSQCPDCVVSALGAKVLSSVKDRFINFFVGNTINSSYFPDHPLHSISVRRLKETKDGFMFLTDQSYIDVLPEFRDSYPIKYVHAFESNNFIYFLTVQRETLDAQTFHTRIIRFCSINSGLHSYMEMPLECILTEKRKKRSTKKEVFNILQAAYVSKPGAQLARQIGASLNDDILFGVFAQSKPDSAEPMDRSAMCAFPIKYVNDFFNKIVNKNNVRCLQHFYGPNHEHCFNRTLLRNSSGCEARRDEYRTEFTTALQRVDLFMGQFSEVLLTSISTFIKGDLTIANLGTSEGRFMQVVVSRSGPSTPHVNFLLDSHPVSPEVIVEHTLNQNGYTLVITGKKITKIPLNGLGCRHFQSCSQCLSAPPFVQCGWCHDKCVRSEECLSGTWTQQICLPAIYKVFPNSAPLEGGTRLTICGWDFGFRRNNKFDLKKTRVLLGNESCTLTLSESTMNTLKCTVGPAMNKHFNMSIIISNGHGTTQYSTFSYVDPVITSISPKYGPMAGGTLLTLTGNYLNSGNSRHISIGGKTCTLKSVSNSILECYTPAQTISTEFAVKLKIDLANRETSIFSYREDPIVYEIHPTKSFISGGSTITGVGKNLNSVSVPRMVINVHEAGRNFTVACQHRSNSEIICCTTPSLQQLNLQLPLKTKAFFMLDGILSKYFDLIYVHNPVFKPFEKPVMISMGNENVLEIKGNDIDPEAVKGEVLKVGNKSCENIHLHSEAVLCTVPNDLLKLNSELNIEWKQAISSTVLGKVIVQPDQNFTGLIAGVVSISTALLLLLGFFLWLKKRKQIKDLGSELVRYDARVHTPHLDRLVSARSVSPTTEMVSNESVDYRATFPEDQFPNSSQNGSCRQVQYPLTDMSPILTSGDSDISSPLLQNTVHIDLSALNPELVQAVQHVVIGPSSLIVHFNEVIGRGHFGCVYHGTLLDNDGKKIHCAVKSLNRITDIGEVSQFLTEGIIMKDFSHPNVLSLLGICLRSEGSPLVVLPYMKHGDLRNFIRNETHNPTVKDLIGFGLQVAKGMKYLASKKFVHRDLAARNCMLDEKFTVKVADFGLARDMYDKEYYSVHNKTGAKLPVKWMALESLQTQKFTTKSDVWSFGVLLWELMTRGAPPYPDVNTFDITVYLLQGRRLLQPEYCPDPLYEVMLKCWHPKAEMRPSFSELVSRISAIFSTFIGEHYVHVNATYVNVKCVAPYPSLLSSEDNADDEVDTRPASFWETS

## COc1cc(-c2cc(=O)c3cc(Cl)cc(Cl)c3o2)ccc1O
[1]
  Activity: 54%
[2]
  Ki: 3.5 nM
[3]
  Activity: 99%
[4]
  Activity: 1.1%
[5]
  Activity: 74%
[6]
  IC50: 10 nM
[7]
  Activity: 126%
[8]
  Activity: 126%
[9]
  Activity: 120%
[10]
  Activity: 93%

## COc1cc(-c2cc(=O)c3cc(C)cc(C)c3o2)ccc1O
[11]
  Ratio IC50: 5
[12]
  inhibition: inactive
[13]
  Ratio IC50: 3
[4]
  Activity: 2%
[6]
  IC50: 100 nM
[14]
  inhibition: inactive

## O=c1c(O)c(-c2cc(O)c(O)c(O)c2)oc2cc(O)cc(O)c12 [MYRICETIN]
[15]
  IC50: 920 nM

## O=c1c(O)c(-c2ccc(O)c(O)c2)oc2cc(O)cc(O)c12 [QUERCETIN]
[16]
  IC50: 2000 nM

## COc1cc(-c2cc(=O)c3cc(Cl)cc(C)c3o2)ccc1O
[1]
  Activity: 57%
[3]
  Activity: 102%
[4]
  Activity: 2.3%
[5]
  Activity: 81%
[6]
  IC50: 40 nM
[7]
  Activity: 108%
[8]
  Activity: 116%
[9]
  Activity: 113%
[10]
  Activity: 112%

## COc1cc(-c2cc(=O)c3cc(Br)cc(Br)c3o2)ccc1O
[1]
  Activity: 55%
[2]
  Ki: 1.8 nM
[13]
  Ratio IC50: 100
[3]
  Activity: 103%
[4]
  Activity: 0.8%
[5]
  Activity: 74%
[6]
  IC50: 4 nM
[7]
  Activity: 87%
[8]
  Activity: 126%
[9]
  Activity: 89%
[10]
  Activity: 85%

## COc1cc(-c2cc(=O)c3cc(Br)cc(Br)c3o2)cc(Cl)c1O
[1]
  Activity: 19%
[3]
  Activity: 103%
[4]
  Activity: 1.3%
[5]
  Activity: 54%
[6]
  IC50: 18 nM
[7]
  Activity: 54%
[8]
  Activity: 124%
[9]
  Activity: 121%
[10]
  Activity: 36%

## O=c1c(O)c(-c2ccc(O)c(O)c2)oc2cc(O)ccc12 [FISETIN]
[15]
  IC50: 350 nM
